Like-named read-outs stand apart in the source and are kept apart here. Values belong to the compound of their own block, whether it stands above or below them.
How the values were obtained:
[1] = human liver microsomes; ref Gujjar et al. [29]; cited from earlier work
P. berghei [2] = settings: mice, oral dosing; ref [29]; cited from earlier work
PfDHODH = target: T1, PfDHODH (Plasmodium falciparum, UniProt Q08210); test: biochemical; type: biochemical; settings: for fold less potent against PfDHODH than the comparable triazolopyrimidine 1: reduction in binding affinity/activity relative to 1
T1 sequence (Q08210 24-569): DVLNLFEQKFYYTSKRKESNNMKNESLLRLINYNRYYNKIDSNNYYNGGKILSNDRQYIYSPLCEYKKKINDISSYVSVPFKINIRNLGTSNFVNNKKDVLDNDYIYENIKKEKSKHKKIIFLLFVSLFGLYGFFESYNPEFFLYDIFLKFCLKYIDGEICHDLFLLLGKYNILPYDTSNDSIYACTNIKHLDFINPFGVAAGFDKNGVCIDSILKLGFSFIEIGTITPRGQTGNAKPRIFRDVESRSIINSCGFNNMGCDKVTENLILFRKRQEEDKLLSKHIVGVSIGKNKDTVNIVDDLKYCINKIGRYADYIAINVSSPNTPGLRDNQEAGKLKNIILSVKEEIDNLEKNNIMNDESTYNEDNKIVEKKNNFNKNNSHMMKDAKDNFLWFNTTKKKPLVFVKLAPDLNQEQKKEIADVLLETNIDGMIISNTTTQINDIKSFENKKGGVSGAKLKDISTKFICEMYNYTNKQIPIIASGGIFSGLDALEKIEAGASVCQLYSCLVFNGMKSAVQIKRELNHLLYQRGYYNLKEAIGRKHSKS

PbDHODH = PbDHODH (Plasmodium berghei, UniProt A0A509AEH5); test: PbDHODH steady-state colorimetric DCIP enzyme assay; type: biochemical; settings: relative to 2
[3] = In vitro metabolic stability in human liver microsomes; type: in vitro ADME
[4] = In vitro metabolic stability in mouse liver microsomes; type: in vitro ADME
[5] = Mouse pharmacokinetics after single oral dose; type: in vivo; settings: mice
P. berghei [6] = test: P. berghei mouse in vivo efficacy model; parameters: species or system Plasmodium berghei; settings: mice
P. falciparum 3D7 cells = settings: read-out: EC50 (μM) Pf3D7; clone 3D7; ref [27],[29]; cited from earlier work
hDHODH = hDHODH (Homo sapiens, UniProt Q02127); settings: cited from earlier work
Chain of hDHODH (Q02127 whole entry): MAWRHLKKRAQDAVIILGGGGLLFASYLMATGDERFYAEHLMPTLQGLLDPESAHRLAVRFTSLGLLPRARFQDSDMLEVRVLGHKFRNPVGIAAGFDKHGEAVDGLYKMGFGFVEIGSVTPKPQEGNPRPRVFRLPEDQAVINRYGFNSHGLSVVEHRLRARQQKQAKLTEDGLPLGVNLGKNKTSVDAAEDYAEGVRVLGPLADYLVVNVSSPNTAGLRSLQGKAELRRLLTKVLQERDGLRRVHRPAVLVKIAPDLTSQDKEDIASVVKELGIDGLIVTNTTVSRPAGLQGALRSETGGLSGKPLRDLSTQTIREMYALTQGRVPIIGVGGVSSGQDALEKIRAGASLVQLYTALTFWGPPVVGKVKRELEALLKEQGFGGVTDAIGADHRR

Chain of PbDHODH (A0A509AEH5 132-517 limits assumed): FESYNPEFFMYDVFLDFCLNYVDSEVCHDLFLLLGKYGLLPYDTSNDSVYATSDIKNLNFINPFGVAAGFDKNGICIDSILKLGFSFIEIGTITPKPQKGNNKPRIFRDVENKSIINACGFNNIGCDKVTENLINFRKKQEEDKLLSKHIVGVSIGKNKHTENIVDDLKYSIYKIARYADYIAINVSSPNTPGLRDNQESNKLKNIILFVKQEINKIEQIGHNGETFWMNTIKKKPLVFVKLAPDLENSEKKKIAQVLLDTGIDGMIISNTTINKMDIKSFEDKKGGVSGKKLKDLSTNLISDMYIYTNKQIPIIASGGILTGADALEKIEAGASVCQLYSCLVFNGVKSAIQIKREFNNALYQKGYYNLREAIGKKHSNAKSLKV

SMILES: Cc1cc(Nc2ccc(C(F)(F)F)cc2)n2ncnc2n1 [Compound 2, 5-methyl-N-(4-(trifluoromethyl)phenyl)-[1,2,4]triazolo[1,5-a]pyrimidin-7-amine]
Predicted EH [1]: 0.29 | in vivo efficacy in the P. berghei model (in words) (P. berghei [2]): able to suppress parasitemia

SMILES: Cc1cc(Nc2ccc(C(F)(F)F)cc2)n2ccnc2n1 [Compound 16, 7-Methyl-N-(4-(trifluoromethyl)phenyl)imidazo[1,2-a]pyrimidin-5-amine]
fold more potent against PfDHODH than the equivalent triazolopyrimidine 2 (PfDHODH; relative to 2): 4 fold | fold better potency against PbDHODH than 2 (PbDHODH): 2 fold | Putative metabolites ([3]; human liver microsomes): None detected | Predicted EH ([3]; human liver microsomes, predicted in vivo hepatic extraction ratio): 0.21 | microsomal CLint at 1 μM ([3]; human, pooled human liver microsomes): 4.7 µL/min/mg | Putative metabolites ([4]; mouse liver microsomes): None detected | Predicted EH ([4]; mouse liver microsomes, predicted in vivo hepatic extraction ratio): 0.59 | in vitro clearance class ([4]; mouse microsomes): intermediate | microsomal CLint at 1 μM ([4]; mouse, pooled mouse liver microsomes): 34 µL/min/mg | adverse reactions following oral administration ([5]; 10 mg/kg oral): No adverse reactions were observed | peak plasma concentrations ([5]; single oral dose 10 mg/kg): 3.9 µM | time plasma levels maintained above 1 μM ([5]; single oral dose 10 mg/kg): about 4 h | in vivo efficacy in the P. berghei model (in words) (P. berghei [6]): suppresses parasites in vivo

SMILES: Cc1cc(Nc2ccc3ccccc3c2)n2ccnc2n1 [Compound 6, 7-Methyl-N-(naphthalen-2-yl)imidazo[1,2-a]pyrimidin-5-amine]
fold less potent against PfDHODH than the comparable triazolopyrimidine 1 (PfDHODH): 3 fold

IC50 (PfDHODH): > 50 µM | PfDHODH activity (in words) (PfDHODH): inactivated
SMILES: Cc1cc(Nc2ccc3ccccc3c2)c2nncn2n1 [Compound 11, 6-Methyl-N-(naphthalen-2-yl)-[1,2,4]triazolo[4,3-b]pyridazin-8-amine]

SMILES: Cc1cc(Nc2ccc3ccccc3c2)n2ncnc2n1 [Compound 1, (5-methyl-[1,2,4]triazolo[1,5-a]pyrimidin-7-yl)naphthalene-2-ylamine]
EC50 (P. falciparum 3D7 cells): 0.076 µM | in vivo efficacy in the P. berghei model (in words) (P. berghei [2]): no anti-parasite activity | IC50 (hDHODH; read-out: IC50 (μM) hDHODH, ref [27],[29]): > 100 µM | activity against human DHODH (in words) (hDHODH; ref [26]–[28]): without inhibiting human DHODH

SMILES: Cc1cc(Nc2ccc3ccccc3c2)n2nccc2n1 [Compound 8, 5-Methyl-N-(naphthalen-2-yl)pyrazolo[1,5-a]pyrimidin-7-amine]
fold less potent against PfDHODH than the comparable triazolopyrimidine 1 (PfDHODH): ~ 8.5 fold

SMILES: Cc1nc(Nc2ccc3ccccc3c2)c2nc[nH]c2n1 [Compound 9, 2-Methyl-N-(naphthalen-2-yl)-9H-purin-6-amine]
fold less potent against PfDHODH than the comparable triazolopyrimidine 1 (PfDHODH): ~ 9 fold

IC50 (PfDHODH): > 25 µM
SMILES: Cc1nc(Nc2ccc3ncccc3c2)c2nc[nH]c2n1 [Compound 14, N-(2-Methyl-9H-purin-6-yl)quinolin-6-amine]

IC50 (PfDHODH): > 100 µM | PfDHODH activity (in words) (PfDHODH): inactive
SMILES: Cc1nc(Nc2n[nH]cc2C#N)c2nc[nH]c2n1 [Compound 15, 3-(2-Methyl-9H-purin-6-ylamino)-1H-pyrazole-4-carbonitrile]

SMILES: Cc1cc(NC(=O)c2ccc(C(F)(F)F)cc2)n2ncnc2n1 [Compound 5]
IC50 (PfDHODH): > 100 µM | PfDHODH activity (in words) (PfDHODH): loss of activity

SMILES: Cc1cc(NC(=O)c2ccccc2)n2ncnc2n1 [Compound 4, N-(5-methyl-[1,2,4]triazolo[1,5-a]pyrimidin-7-yl)benzamide]
IC50 (PfDHODH): > 100 µM | PfDHODH activity (in words) (PfDHODH): loss of activity

IC50 (PfDHODH): > 100 µM | PfDHODH activity (in words) (PfDHODH): inactivated
SMILES: Cc1nc(Nc2ccc3ccccc3c2)c2cn[nH]c2n1 [Compound 10, 6-Methyl-N-(naphthalen-2-yl)-1H-pyrazolo[3,4-d]pyrimidin-4-amine]

fold less potent against PfDHODH than the comparable triazolopyrimidine 1 (PfDHODH): 100 fold
SMILES: Cc1cc(Nc2ccc3ccccc3c2)n2ncnc2c1 [Compound 7, 7-Methyl-N-(naphthalen-2-yl)-[1,2,4]triazolo[1,5-a]pyridin-5-amine]

— PMC3446820 (Journal of medicinal chemistry, 2012)
